# According to patent publication US20260092037A1, “CRYSTALLINE SALT FORMS OF N-((1-(2-(TERT-BUTYLAMINO)-2-OXOETHYL)PIPERIDIN-4-YL) METHYL)-3-CHLORO-5-FLUOROBENZAMIDE AND METHODS OF USE THEREOF” (priority 2023, published 2026):
# Where two headings read alike, the source gives them in different places.
# Key:
# [1] = X-ray powder diffraction (XRPD) of salt screen and scale-up products; type: physicochemical; conditions: salt screen
# Excerpt: The Rigaku Smart-Lab X-ray diffraction system was configured for reflection Bragg-Brentano geometry using a line source X-ray beam. The x-ray source is a Cu Long Fine Focus tube that was operated at 40 kV and 44 ma. That source provides an incident beam profile at the sample that changes from a narrow line at high angles to a broad rectangle at low angles. Beam conditioning slits are used on the line X-ray source to ensure that the maximum beam size is less than 10 mm both along the line and normal to the line. The Bragg-Brentano geometry is a para-focusing geometry controlled by passive divergence and receiving slits with the sample itself acting as the focusing component for the optics. The inherent resolution of Bragg-Brentano geometry is governed in part by the diffractometer radius and the width of the receiving slit used. Typically, the Rigaku Smart-Lab is operated to give peak widths of 0.1° 2θ or less. The axial divergence of the X-ray beam is controlled by 5.0-degree Soller slits in both the incident and diffracted beam paths.
# Powder samples were prepared in a low background Si holder using light manual pressure to keep the sample surfaces flat and level with the reference surface of the sample holder. Each sample was analyzed from 2 to 40° 2θ using a continuous scan of 6° 2θ per minute with an effective step size of 0.02° 2θ.
# absence seizures = conditions: childhood absence epilepsy, cited from earlier work
# [2] = at 16 weeks, as assessed by video-EEG recordings
compound,measurement,setting,value
Laurate,XRPD Pattern,"[1]; E, MeOH",API A + acid + pks
same,XRPD Pattern,"[1]; Grind, ACN",API A + acid + pks
Gluconate,XRPD Pattern,"[1]; E, MeOH/toluene (1:1), RT",API A
same,XRPD Pattern,"[1]; Grind, ACN",API A
same,XRPD Pattern,"[1]; LY, dioxane/water",API A + NC
Alginate,XRPD Pattern,"[1]; Grind, IPA",API A
Propionate,XRPD Pattern,"[1]; E, MeOH",API A
same,XRPD Pattern,"[1]; Grind, ACN",API A
Stearate,XRPD Pattern,"[1]; E, MeOH",API A + acid
same,XRPD Pattern,"[1]; Grind, ACN",API A + acid
Caprate,XRPD Pattern,"[1]; E (evaporation), EtOH",API A (PO)
same,XRPD Pattern,"[1]; Grind, ACN",API A + pks
Tartrate,XRPD Pattern,"[1]; Grind, IPA",API A + acid + NC
Citrate,XRPD Pattern,"[1]; Grind, EtOAc",API A + acid + NC
O=CO [Formate],XRPD Pattern,"[1]; E (evaporation), EtOH",API A (PO)
same,XRPD Pattern,"[1]; Grind, ACN",API A
CCC1(C)CC(=O)NC1=O (stereo not shown) [ethosuximide],patients in whom the seizures were completely controlled,absence seizures; at 12 months,45%
same,patients in whom the seizures were completely controlled,absence seizures; [2],53%
Gentisate,XRPD Pattern,"[1]; Grind, BuOAc",API A + NC
CC(=O)O [Acetate],XRPD Pattern,"[1]; E (evaporation), EtOH",API A (PO)
same,XRPD Pattern,"[1]; Grind, ACN",API A
Palmitate,XRPD Pattern,"[1]; E, MeOH",API A + acid
same,XRPD Pattern,"[1]; Grind, ACN",API A + acid
Caprylate,XRPD Pattern,"[1]; E (evaporation), EtOH",API A (PO)
same,XRPD Pattern,"[1]; Grind, ACN",API A
N[C@@H](CCC(=O)O)C(=O)O [Glutamate],XRPD Pattern,"[1]; Grind, ACN/water (9:1)",API A + acid
same,XRPD Pattern,"[1]; SL, ACN, 50° C.",API A + acid
Pyroglutamate,XRPD Pattern,"[1]; Grind, MEK",API A + pks
O=S(=O)(O)CCO [Isethionate],XRPD Pattern,"[1]; Grind, ACN",API A + NC
Glucuronate,XRPD Pattern,"[1]; Grind, acetone",API A + pks
same,XRPD Pattern,"[1]; LY, dioxane/water",API A + NC
Oleate,XRPD Pattern,"[1]; E, MeOH",API A (PO)
same,XRPD Pattern,"[1]; Grind, ACN",API A + NC
Nc1nnc(-c2cccc(Cl)c2Cl)c(N)n1 [Lamotrigine],patients in whom the seizures were completely controlled,absence seizures; at 12 months,21%
same,patients in whom the seizures were completely controlled,absence seizures; [2],29%
Benzoate,XRPD Pattern,"[1]; E (evaporation), EtOH",API A + NC
same,XRPD Pattern,"[1]; Grind, ACN",API A + NC
same,XRPD Pattern,"[1]; SL, IPE, RT",API A
Hippurate,XRPD Pattern,"[1]; E (evaporation), EtOH",API A + NC
same,XRPD Pattern,"[1]; Grind, IPA",API A + acid
O=C(O)CCC(=O)C(=O)O [Ketoglutarate],XRPD Pattern,"[1]; E, MeOH/ACN (1:1)",NC + pks
same,XRPD Pattern,"[1]; Grind, ACN",API A + NC
Camphorate,XRPD Pattern,"[1]; E (evaporation), EtOH",API A (PO)
same,XRPD Pattern,"[1]; Grind, ACN",API A + acid
Ascorbate,XRPD Pattern,"[1]; E (evaporation), EtOH",API A (PO)
same,XRPD Pattern,"[1]; Grind, ACN",API A + acid
Malate,XRPD Pattern,"[1]; Grind, IPA",API A + NC
CC(C)C(=O)O [Isobutyrate],XRPD Pattern,"[1]; E, MeOH",API A
same,XRPD Pattern,"[1]; Grind, ACN",API A
